This assay deals with A549 (Lung Mesothelial Carcinoma) cells. Format: cell-based.

“Also recorded” adds a separate entry of the source.

Take C60(OH)n (n˜1-48) [PHF]: the “observed damage to cells” value was “restricted to the top layer of cells; also recorded: damage of multiple layers of cells”.
